Reference: patent publication US20020004611A1 (Cargill, Incorporated, priority 1997, published 2002)

Experiments:
Assay type in all cases: physicochemical
[1] = Chiral purity of lactic acid after heating during triethylamine evaporation (Example 5)
Protocol: The back extraction was scaled up to allow the distillation experiment. […] The triethylamine evaporated initially at 23° C. and 10 mm Hg. […] About 69% of the triethylamine evaporated out. […].
The remaining mixture was heated to 110° C. where it was held for 80 minutes. At this point, 96% of the triethylamine was evaporated.

[2] = Three successive contacts of fermentation broth with fresh extracting solvent (Example 21); settings: 89 wt % Alamine 336, 9 wt % dodecanol, 2 wt % IsoPar K; for Lactic Acid Aqueous Phase wt % / Lactic Acid Organic Phase wt %: aqueous to organic phase ratio 3.0
Source text: Fermentation broth with a final pH of 3.87 and a total lactate material concentration of 79 g/liter as determined by high performance liquid chromatography was obtained.

[3] = Single stage extraction of lactic acid from fermentation broth with different solvents (Example 20); settings: broth pH 3.87
Source text: Fermentation broth with a final pH value of 3.87 and a total lactate material concentration of 79 g/liter as determined by high performance liquid chromatography was obtained. A number of different solvents were contacted with the broth to determine the lactic acid recovery in a single stage. […] For the 100% Alamine 336 solvent, two organic phases were isolated and titrated and both values are reported. The partition coefficient is not reported for this system.

[4] = Back extraction of lactic acid from Alamine 336 into second polar liquid phase (Example 4)
Protocol: Two solutions of lactic acid and […] 336 were made by contacting the […] […] The samples were held at the specified temperature in an oil bath for about 45 to 60 minutes with regular mixing. […] A similar procedure was used for contacting […] […] Phases were allowed to settle at specified temperature and then quickly separated by piping out the bottom phase. […] 336 concentrations. In all cases, the […] 336 phase was the least dense phase or the top phase. […] 336 concentrations in the top and bottom phases. […] In some of the solvents, there was a significant amount of […] 336 co-extracted into the polar liquid phase. Dimethyl sulfoxide looks like a favorable solvent for this type of process because of the good selectivity for the lactic acid over the […] 336.

[5] = solvent 30 wt % TOPO, 70 wt % MIBK
[6] = solvent 82 wt % A336, 10 wt % OctOH, 8 wt % IPK
[7] = solvent 89 wt % A336, 9 wt % DodecOH, 2 wt % IPK

- chiral purity after heating ([1]; 21.5 wt % lactic acid in triethylamine and N-methyl-2-pyrrolidinone, 55° C. 10 mm Hg two hours, then 110° C. 80 minutes): not significantly changed
- chiral purity of the lactic acid after heating ([1]; 43 wt % lactic acid in triethylamine, 10 mm Hg, heated to 120° C., held 90 minutes): not changed significantly
- Partition Coefficient ([2]; Stage 1): 2.5
- Lactic Acid Aqueous Phase wt % ([2]; Stage 1): 1.55 wt %
- Lactic Acid Organic Phase wt % ([2]; Stage 1): 3.9 wt %
- Partition Coefficient ([2]; Stage 2): 1.25
- Lactic Acid Aqueous Phase wt % ([2]; Stage 2): 1.09 wt %
- Lactic Acid Organic Phase wt % ([2]; Stage 2): 1.36 wt %
- Partition Coefficient ([2]; Stage 3): 0.84
- Lactic Acid Aqueous Phase wt % ([2]; Stage 3): 0.88 wt %
- Lactic Acid Organic Phase wt % ([2]; Stage 3): 0.74 wt %
- Lactic Acid Aqueous Phase wt % [3, 5]: 2.24 wt %
- Lactic Acid Organic Phase wt % [3, 5]: 2.36 wt %
- Partition Coefficient [3, 5]: 1.05
- Lactic Acid Aqueous Phase wt % [3, 6]: 1.52 wt %
- Lactic Acid Organic Phase wt % [3, 6]: 5.09 wt %
- Partition Coefficient [3, 6]: 3.35
- Lactic Acid Aqueous Phase wt % [3, 7]: 4.76 wt %
- Lactic Acid Organic Phase wt % [3, 7]: 1.84 wt %
- Partition Coefficient [3, 7]: 2.6
- Lactic Acid Aqueous Phase wt % ([3]; solvent 100% A336): 2.34 wt %
- Partition Coefficient (lactic acid, Alamine 336 top phase / bottom polar liquid phase) ([4]; solvent Lactide, 140 °C): 0.82
- Lactic acid Wt % ([4]; solvent Lactide, 140 °C, Bottom phase, calculated from overall mass balance): 2.98^2 Wt %
- Lactic acid Wt % ([4]; solvent Lactide, 140 °C, Top (Alamine 336) phase): 2.44 Wt %
- Partition Coefficient (lactic acid, Alamine 336 top phase / bottom polar liquid phase) ([4]; solvent NMP, 90 °C): 0.29
- Lactic acid Wt % ([4]; solvent NMP, 90 °C, Bottom (polar liquid) phase): 1.13 Wt %
- Lactic acid Wt % ([4]; solvent NMP, 90 °C, Top (Alamine 336) phase): 0.33 Wt %
- Partition Coefficient (lactic acid, Alamine 336 top phase / bottom polar liquid phase) ([4]; solvent NMP, 110 °C): 0.22
- Lactic acid Wt % ([4]; solvent NMP, 110 °C, Bottom (polar liquid) phase): 12.2 Wt %
- Lactic acid Wt % ([4]; solvent NMP, 110 °C, Top (Alamine 336) phase): 2.73 Wt %
Structure (SMILES): CC(O)C(=O)O (stereo not drawn) [lactic acid, 2-hydroxypropionic acid]
